Source: US5576022A, “Controlled release tacrine drug delivery systems and methods for preparing same” (Warner Lambert Company, priority 1995, dated 1996)

Legend:
[1] = background; cited from earlier work
[2] = Single-dose 40-mg pharmacokinetics of CR1, CR2, CR6 and CR7 capsules in healthy elderly volunteers (Example 12); assay type: in vivo, human; conditions: all of the formulations
Excerpt: The study objective was to determine the relative bioavailability and in vivo release characteristics of a 40-mg tacrine IR capsule (CR1) and three prototype 40-mg tacrine CR capsules (CR2, CR6 and CR7) to aid in the development of a tacrine controlled-release formulation. Sixteen healthy volunteers received a single 40-mg tacrine dose of CR1, CR2, CR6, or CR7 according to a randomized, 4-way crossover design (Table 6). Subjects ranged in age from 59 to 77 years (mean=67). […] Serial blood samples were drawn up to 24 hours following each dose and were subsequently analyzed for tacrine, 1-OH tacrine, 2-OH tacrine, and 4-OH tacrine.

[3] = Single-dose 40-mg pharmacokinetics of CR1, CR3, CR4 and CR5 capsules in healthy elderly volunteers (Example 11, Protocol 970-36); conditions: all of the formulations
Description: Subjects ranged in age form 50 to 74 years (mean=62). None of the subjects were smokers. Serial blood samples were drawn up to 24 hours following each dose and subsequently analyzed for tacrine.
Lag-time (tlag) between dose administration and apparent start of absorption was determined as the sampling time immediately preceding time of the first quantifiable plasma concentration.
Extent of absorption was assessed by evaluation of AUC(O-tldc) values. […] Relative extent of absorption values based on AUC(O-.infin.) values were similar to those based on AUC(O-tldc).

Compound | absorption and elimination in words [1] | Plasma 1-OH tacrine concentrations relative to tacrine [2] | Plasma 1-OH tacrine concentrations relative to tacrine [3]
Cl.Nc1c2c(nc3ccccc13)CCCC2 [tacrine, 1,2,3,4-tetrahydro-9-acridinamine hydrochloride] | rapidly absorbed and eliminated | – | –
Nc1c2c(nc3ccccc13)CCCC2O (stereo not drawn) [1-OH tacrine] | – | approximately three times higher | approximately two times higher
